Experiments:
[1] = molecular target: T1, ACOT8 peroxisomal acyl-CoA thioesterase 8 (Mus musculus, UniProt P58137); settings: inhibition of ACOT8; cited from earlier work
T1 construct: His-Tag; host or cells: E. coli
T1 sequence (P58137 1-320): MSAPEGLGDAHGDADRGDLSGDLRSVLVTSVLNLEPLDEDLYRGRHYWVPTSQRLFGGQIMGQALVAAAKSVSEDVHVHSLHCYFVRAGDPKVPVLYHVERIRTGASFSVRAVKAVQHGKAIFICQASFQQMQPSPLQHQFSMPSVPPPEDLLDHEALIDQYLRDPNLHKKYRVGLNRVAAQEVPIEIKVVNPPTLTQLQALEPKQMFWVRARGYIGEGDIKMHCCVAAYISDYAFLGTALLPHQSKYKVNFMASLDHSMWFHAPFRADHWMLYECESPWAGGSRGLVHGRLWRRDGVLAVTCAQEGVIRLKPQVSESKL

ACOT3 (formerly PTE-1a) = molecular target: T2, ACOT3 (formerly PTE-1a) (Mus musculus, UniProt Q9QYR7); settings: free CoASH; cited from earlier work
T2 construct: His-tag; host or cells: E. coli
T2 sequence (Q9QYR7 1-432): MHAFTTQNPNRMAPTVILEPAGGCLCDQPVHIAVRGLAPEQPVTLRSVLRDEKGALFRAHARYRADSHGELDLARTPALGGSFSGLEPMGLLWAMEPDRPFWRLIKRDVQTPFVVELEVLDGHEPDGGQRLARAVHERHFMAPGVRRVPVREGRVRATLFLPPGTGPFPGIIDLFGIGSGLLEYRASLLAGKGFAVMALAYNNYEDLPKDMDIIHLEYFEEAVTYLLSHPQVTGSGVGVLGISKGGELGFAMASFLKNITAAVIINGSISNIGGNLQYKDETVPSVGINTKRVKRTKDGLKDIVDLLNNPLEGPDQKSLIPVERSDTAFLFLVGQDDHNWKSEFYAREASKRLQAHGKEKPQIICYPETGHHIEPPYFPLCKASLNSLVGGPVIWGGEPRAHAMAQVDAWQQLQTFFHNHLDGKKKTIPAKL

[2] = molecular target: T3, ACOT4 peroxisomal acyl-CoA thioesterase 4 (Mus musculus, UniProt Q8BWN8); settings: CoASH at concentrations up to 500 μM; cited from earlier work
T3 construct: His-tag; host or cells: E. coli
T3 sequence (Q8BWN8 1-421): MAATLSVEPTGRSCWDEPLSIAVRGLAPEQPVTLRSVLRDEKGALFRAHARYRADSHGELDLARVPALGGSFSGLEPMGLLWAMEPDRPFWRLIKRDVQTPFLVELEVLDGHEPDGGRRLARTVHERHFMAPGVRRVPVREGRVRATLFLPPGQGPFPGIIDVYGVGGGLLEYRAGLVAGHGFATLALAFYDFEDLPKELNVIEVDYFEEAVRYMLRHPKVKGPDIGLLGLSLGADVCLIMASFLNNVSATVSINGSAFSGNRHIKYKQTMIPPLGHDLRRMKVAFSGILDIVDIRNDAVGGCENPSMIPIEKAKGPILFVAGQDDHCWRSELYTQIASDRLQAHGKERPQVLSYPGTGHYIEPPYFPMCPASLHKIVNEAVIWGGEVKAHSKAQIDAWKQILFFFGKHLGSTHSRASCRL

ACOT5 (formerly PTE-1c) = molecular target: T4, ACOT5 (formerly PTE-1c) (Mus musculus, UniProt Q6Q2Z6); settings: free CoASH; cited from earlier work
T4 construct: His-tag; host or cells: E. coli
T4 sequence (Q6Q2Z6 1-421): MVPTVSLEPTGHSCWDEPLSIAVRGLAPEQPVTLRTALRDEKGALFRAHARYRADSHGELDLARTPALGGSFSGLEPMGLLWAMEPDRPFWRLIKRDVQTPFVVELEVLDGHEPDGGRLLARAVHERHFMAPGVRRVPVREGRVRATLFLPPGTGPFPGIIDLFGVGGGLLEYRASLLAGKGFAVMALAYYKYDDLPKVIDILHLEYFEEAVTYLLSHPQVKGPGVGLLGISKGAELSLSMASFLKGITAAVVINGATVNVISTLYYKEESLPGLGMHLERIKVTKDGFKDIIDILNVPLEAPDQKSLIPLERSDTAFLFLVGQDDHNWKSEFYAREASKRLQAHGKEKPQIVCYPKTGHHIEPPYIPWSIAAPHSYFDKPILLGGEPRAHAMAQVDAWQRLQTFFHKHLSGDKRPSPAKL

[3] = molecular target: T5, AAR acyl-ACP reductase (YP_400611) (Synechococcus elongatus, UniProt Q54765); settings: substrate of AAR, octadecanal formed, NADPH-dependent; cited from earlier work
T5 construct: host or cells: E. coli MG1655
T5 sequence (Q54765 1-341): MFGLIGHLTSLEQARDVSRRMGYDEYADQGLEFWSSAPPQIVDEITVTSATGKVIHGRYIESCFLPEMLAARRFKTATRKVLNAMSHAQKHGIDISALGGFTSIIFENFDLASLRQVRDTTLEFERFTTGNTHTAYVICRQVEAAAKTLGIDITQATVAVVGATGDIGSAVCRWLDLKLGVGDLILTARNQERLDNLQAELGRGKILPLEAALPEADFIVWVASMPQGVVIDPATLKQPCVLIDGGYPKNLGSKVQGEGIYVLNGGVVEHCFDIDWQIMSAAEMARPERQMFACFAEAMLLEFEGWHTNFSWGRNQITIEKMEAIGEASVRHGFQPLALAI

[4] = molecular target: T6, Nocardia sp. carboxylic acid reductase (CAR) (Nocardia iowensis, UniProt Q6RKB1); experiment: Spectrophotometric carboxylic acid reductase (CAR) activity assay, change in absorbance at 340 nm; assay type: biochemical; settings: for Adjusted for background: gradient of change in absorbance at 340 nm adjusted for background; for gradient of trend line: rate of change in absorbance at 340 nm, CAR cell free extract, substrate added after 2 minutes; for Relative rate % compared to benzoate: relative rate of change in absorbance at 340 nm
T6 construct: made in house; host or cells: E. coli BL-21 (DE3) RP1pPV2-85; cell free extract
T6 sequence (Q6RKB1 1-1174): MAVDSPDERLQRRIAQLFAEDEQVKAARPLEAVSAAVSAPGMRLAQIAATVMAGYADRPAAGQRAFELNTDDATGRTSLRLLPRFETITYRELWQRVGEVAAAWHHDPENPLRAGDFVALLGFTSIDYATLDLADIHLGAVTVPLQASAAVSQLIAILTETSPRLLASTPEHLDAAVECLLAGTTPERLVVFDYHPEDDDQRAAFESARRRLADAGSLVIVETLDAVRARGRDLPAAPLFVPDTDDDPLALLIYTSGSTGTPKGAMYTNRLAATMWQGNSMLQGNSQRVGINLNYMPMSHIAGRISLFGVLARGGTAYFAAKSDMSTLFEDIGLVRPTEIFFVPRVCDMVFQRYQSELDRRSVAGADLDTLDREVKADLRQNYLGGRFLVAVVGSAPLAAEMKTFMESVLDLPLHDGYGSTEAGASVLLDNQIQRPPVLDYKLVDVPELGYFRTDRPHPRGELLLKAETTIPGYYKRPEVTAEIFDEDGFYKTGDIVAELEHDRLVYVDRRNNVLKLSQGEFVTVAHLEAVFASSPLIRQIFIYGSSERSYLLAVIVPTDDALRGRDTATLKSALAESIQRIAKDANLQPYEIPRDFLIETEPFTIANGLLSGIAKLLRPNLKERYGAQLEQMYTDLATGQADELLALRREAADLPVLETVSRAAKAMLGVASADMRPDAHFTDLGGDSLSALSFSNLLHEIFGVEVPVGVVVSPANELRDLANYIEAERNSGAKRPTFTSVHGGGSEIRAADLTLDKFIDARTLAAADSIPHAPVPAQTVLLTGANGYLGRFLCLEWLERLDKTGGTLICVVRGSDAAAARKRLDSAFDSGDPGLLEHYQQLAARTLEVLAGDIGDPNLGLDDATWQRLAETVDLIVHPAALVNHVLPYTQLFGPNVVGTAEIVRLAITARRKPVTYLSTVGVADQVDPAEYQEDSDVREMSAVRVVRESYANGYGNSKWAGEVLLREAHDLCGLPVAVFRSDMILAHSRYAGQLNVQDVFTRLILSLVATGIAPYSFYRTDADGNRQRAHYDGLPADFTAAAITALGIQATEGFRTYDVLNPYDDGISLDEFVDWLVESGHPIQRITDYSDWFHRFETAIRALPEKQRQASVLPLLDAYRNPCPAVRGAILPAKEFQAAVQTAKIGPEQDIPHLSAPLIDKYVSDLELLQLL
Description: The conditions for the assay were taken from Applied and Environmental Microbiology 2004, 70, p 1874-1881.
In a quartz cuvette the following reagents were added: 100 μL MgCl2, 100 μL, ATP, 100 μL NADPH, 200 μL Tris.HCl buffer. The absorbance at 340 nm was measured and recorded and 100 μL of CAR cell free extract was added. The absorbance was monitored and recorded. […] The absorbance monitored over time was subtracted from the initial measurement.

[5] = molecular target: T7, Amino adipate aminotransferase (Q64602) (Bos taurus, UniProt Q5E9N4); settings: in the presence of pimelic acid; cited from earlier work
T7 construct: Purification and properties of 2-aminoadipate: 2-oxoglutarate aminotransferase from bovine kidney; host or cells: bovine kidney

[6] = test system: PauA catabolic pimeloyl-CoA ligase; settings: substrate accepted by PauA, pimelate = 100%; cited from earlier work

T7 sequence (Q5E9N4 30-425, one chain of several): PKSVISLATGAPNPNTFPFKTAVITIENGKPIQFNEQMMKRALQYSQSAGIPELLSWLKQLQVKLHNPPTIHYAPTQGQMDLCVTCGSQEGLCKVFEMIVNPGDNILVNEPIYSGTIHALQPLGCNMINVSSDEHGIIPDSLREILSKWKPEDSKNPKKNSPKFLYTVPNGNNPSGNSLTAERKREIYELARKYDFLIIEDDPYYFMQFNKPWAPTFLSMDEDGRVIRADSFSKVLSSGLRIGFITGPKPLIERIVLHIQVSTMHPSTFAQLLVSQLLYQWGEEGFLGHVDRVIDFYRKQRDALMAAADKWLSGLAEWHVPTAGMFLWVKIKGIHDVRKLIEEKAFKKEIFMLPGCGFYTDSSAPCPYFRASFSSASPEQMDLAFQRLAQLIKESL

Molecule | Km [3] [µM] | Adjusted for background [4] | gradient of trend line [4] | Relative rate % compared to benzoate [4] [%] | other results
CC(C)(COP(=O)(O)OP(=O)(O)OC[C@H]1O[C@@H](n2cnc3c(N)ncnc32)[C@H](O)[C@@H]1OP(=O)(O)O)[C@@H](O)C(=O)NCCC(=O)NCCS [CoASH] |  |  |  |  | IC50 [1]: 10 to 15 µM; inhibition (ACOT3 (formerly PTE-1a)): no inhibition; inhibition of the reaction [2]: not inhibited; inhibition (ACOT5 (formerly PTE-1c)): no inhibition
CCCCCCCC/C=C\CCCCCCCC(=O)SCCNC(=O)CCNC(=O)[C@H](O)C(C)(C)COP(=O)(O)OP(=O)(O)OC[C@H]1O[C@@H](n2cnc3c(N)ncnc32)[C@H](O)[C@@H]1OP(=O)(O)O [oleoyl-CoA] | 130 |  |  |  | 
O=C(O)CCCCCC(=O)O [pimelic acid] |  |  |  |  | activity relative to the activity for benzoic acid ([4]; reduction to pimelic acid semialdehyde by CAR from Nocardia): > 50%; reduction in activity [5]: 30%; relative activity [6]: 100%
O=C([O-])c1ccccc1.[Na+] [sodium benzoate] |  | 0.00133 | 0.0141 | 100 | 
O=C([O-])CCCCCC(=O)[O-].[Na+].[Na+] [sodium pimelate] |  | 0.0068 | 0.0076 | 51.1 | 
oleoyl-ACP | 8 |  |  |  | 
